# Measured values as given in patent publication US6852686B2, “Methods for ameliorating icthyosiform skin diseases” (The United States of America as represented by the …, priority 1999, dated 2005).
# Columns and labels:
# [1] = biological target: T1, TGase 1 (Homo sapiens, UniProt P22735); test: Lipid Z esterification of involucrin by TGase 1 on SLV; type: biochemical
# T1 construct: Recombinant full-length human TGase 1 and TGase 3 enzymes were expressed in Sf9 cells by the BaculoGold system; made in house; host or cells: Sf9 insect cells, BaculoGold baculovirus system, pVL1392 vector
# T1 sequence (P22735 1-817): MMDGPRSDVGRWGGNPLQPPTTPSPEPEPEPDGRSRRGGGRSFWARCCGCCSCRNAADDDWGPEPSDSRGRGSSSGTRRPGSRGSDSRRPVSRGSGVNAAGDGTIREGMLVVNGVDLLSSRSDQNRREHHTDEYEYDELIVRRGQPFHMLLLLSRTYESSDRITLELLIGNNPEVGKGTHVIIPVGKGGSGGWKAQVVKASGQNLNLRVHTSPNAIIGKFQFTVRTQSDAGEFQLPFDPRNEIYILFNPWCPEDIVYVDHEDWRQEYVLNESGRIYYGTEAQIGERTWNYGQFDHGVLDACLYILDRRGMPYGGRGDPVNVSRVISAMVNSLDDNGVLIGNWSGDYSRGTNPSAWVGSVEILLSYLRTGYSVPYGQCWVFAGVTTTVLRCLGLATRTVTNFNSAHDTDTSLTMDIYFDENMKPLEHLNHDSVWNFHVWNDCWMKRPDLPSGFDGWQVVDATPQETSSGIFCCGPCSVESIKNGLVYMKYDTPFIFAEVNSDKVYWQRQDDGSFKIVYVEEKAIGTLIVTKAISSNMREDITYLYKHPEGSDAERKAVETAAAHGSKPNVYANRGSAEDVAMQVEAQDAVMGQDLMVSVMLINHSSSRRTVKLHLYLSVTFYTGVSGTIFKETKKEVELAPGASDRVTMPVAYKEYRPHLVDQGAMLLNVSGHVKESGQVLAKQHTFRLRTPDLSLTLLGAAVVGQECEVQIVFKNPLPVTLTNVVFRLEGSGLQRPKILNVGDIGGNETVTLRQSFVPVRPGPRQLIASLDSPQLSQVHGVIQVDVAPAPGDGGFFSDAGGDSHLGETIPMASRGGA
# Description: A mixture of 54 mol % dimyristoyl-phosphatidylcholine, 15 mol % dipalmitoyl-phosphatidylserine, 30 mol % cholesterol (all from Sigma, St. Louis, Mo.) and 1 mol % lipid Z was made in chloroform: methanol (9:1). This solution was dried down, taken up in aqueous buffer and dispersed by sonication as before (Nemes et al., J. Biol. Chem., 274: in press (1999)). The SLV suspension was equipped with TGase 1 enzyme by incubation at 37° C. for 15 min prior to adding substrates.
# The reactions were stopped by the addition of EDTA to 10 mM.
# Following reaction, 0.1 ml 20% SDS in water was added to the samples and the mixture was vortexed. This mixture was precipitated and washed three times with acetone-triethylamine-acetic acid (90:5:5) to remove the SDS and the unbound lipids (Konigsberg, W. H. and L. Henderson, Meth. Enzymol., 91: 254-259 (1983), herein expressly incorporated by reference in its entirety). After further washing with acetone the pellet was dried under vacuum and redissolved in 50 mM Tris-HCl (pH 7.5). Resolubilized protein was digested for 16 h with 2 mol % modified trypsin (Boehringer Mannheim). Peptides were resolved on a 250×2 mm PrimesphereC4 HPLC column (Phenomenex) and separated using a gradient elution from 75% buffer A (0.1% TFA in water) to 75% buffer B (50% 2-propanol in acetonitrile) in 40 min. Under these conditions, lipo-peptides were retarded but free peptides elute with the solvent front (Marekov, L. N. and P. M. Steinert, J. Biol. Chem., 273: 17763-17770 (1998), herein expressly incorporated by reference in its entirety).
# Amino acid analysis of hydrolyzed samples (5.7 N HCl at 110° C. for 24 h in vacuo) was used to routinely measure amounts of lipo-peptides. Aliquots of isolated lipo-peptide peaks were attached to a solid support for sequencing (Marekov, L. N. and P. M. Steinert, J. Biol. Chem., 273: 17763-17770 (1998), herein expressly incorporated by reference in its entirety). Saponification of lipo-peptides was done with 1 N KOH in 80% methanol for 2 h at 37° C., after which the solution was acidified, dried and peptides were recovered by HPLC on a C18 column.
# [2] = biological target: T1, TGase 1; test: as above; type: biochemical; remark: listed apart in the source
# [3] = 0.3 nmol involucrin/μmol lipid, 4 h reaction
compound,measurement,setting,value
"CCCCCCCCCCCCC/C=C/[C@@H](O)[C@H](CO)NC(=O)CCCCCCCCCCCCCCCOCCCCCCCCCCCCCCCCO [lipid Z, N-[16-(16-hydroxyhexadecyl)oxypalmitoyl]-sphingosine]",maximum lipid ester formation for Gln 496,[1]; [3],< 0.05 mol/mol
same,"maximum lipid ester formation per mole of Gln residues 107, 118, 122, and 133",[1]; [3],0.1 to 0.3 mol/mol
same,incorporation rate into involucrin,[1]; SLV formulations with 1 mol % lipid Z,2.2±0.3 fmol of lipid Z/s
same,involucrin-lipid adduct formation by TGase 1 on SLV membranes,[1]; ceramide incorporated in SLV,formed saponifiable protein-lipid adducts
same,amount incorporated into SLV without interference with SLV stability or binding of involucrin and TGase 1,[2],≤ 25 mol %
same,KM of lipid Z incorporation into involucrin,[2]; rate linear up to 25 mol % lipid Z in SLV,> 100 mol %
